Reference: patent US5451518A, “Purified human ceramide-activated protein kinase” (Sloan-Kettering Institute for Cancer Research, priority 1992, dated 1995)
Entries after “also recorded” stand apart in the source; their conditions may differ. Where two headings read alike, the source gives them in different places.

Tests used:
[1] = tested on: ceramide-activated protein kinase
Protocol: Homogenates were centrifuged at 500×g for 5 minutes to remove nuclei and at 200,000×g for 30 minutes to prepare microsomal membranes. Membranes were resuspended into homogenizing buffer (2.2 μg membrane protein μl^-1). For assay of kinase activity, the reaction mixture contained 20 μl of microsomal membrane, 40 μl EGFR peptide (4 mg ml^-1 in 25 mM Hepes, pH 7.4) and 100 μl buffer (50 mM HEPES, pH 7.4, 20 mM MgCl2) (40). Phosphorylation was initiated at 22° C. by addition of 40 μl [γ-^32 P] ATP (100 μM final concentration) and terminated at the indicated times by addition of 40 μl of 0.5M ATP in 90% formic acid. Phosphorylated peptide was eluted from a C18 Sep pak cartridge (Millipore), lyophilized, and resolved by C18 reverse phase HPLC using a linear gradient of acetonitrile. […] All assays were performed under conditions determined as linear for time and enzyme concentration. Enzyme activity was determined from the percent conversion of substrate to product and the specific radioactivity of [γ-^32 P] ATP. […] Values (mean ± range) represent duplicate determinations from two experiments.
Activity was measured by the transfer of ^32 P from the γ-position of ATP to EGFR peptide (AA 663-681 of the EGFR). The effect of IL-1β on kinase activity was determined using microsomal membranes derived from cells stimulated with IL-1β.

[2] = tested on: A-431 human epidermoid carcinoma cells; settings: A-431 cells; cited from earlier work
[3] = tested on: ceramide-activated protein kinase; settings: HL-60; cholera toxin 10 nM, retinoic acid 0.5 μM, butyrate 0.5 mM
[4] = tested on: epidermal growth factor receptor (EGFR); settings: A-431 cells; cited from earlier work
[5] = tested on: ceramide-activated protein kinase; settings: for effect on EGFR peptide phosphorylation (in words): A-431
[6] = tested on: ceramide-activated protein kinase; settings: cited from earlier work
[7] = tested on: ceramide-activated protein kinase; assay: Phosphoamino acid analysis of phosphorylated EGFR peptide; type: biochemical, human; settings: A-431
Source text: Reactions were done, and phosphorylated peptide was quantified as for FIG. 2. (Left) HPLC elution profile of samples with or without the EGFR peptide. (Right) Phosphoamino acid analysis of the phosphorylated peptide purified by HPLC. Phosphorylated amino acids (Y, […]; T, threonine; S, serine) were resolved by one-dimensional thin-layer electrophoresis and identified by ninhydrin staining of carrier phosphoamino acids and autoradiography.
To determine which amino acid was phosphorylated, phosphoamino acid analysis of the peptide was done. The phosphopeptide peak obtained by HPLC was subjected to partial acid hydrolysis (1 hr at 110° C. in 6M HCl). The hydrolysates were dried, resuspended in 250 μl of water, and applied to a Dowex AG1-X8 column (Bio-Rad). Amino acids were eluted with 0.5M HCl, dried, and analyzed by thin-layer electrophoresis, according to methods well known to those skilled in the art (26). Individual phosphoamino acids were identified by ninhydrin staining of carrier phosphoamino acids and by autoradiography.

HL-60 cells [8] = settings: cited from earlier work
HL-60 cells [9] = settings: cited from earlier work; remark: listed apart in the source

CCCCCCCCCCCCC/C=C/[C@@H](O)[C@@H](N)CO [sphingosine]
enhancement of kinase activity ([1]; 10 nM to 1 μM): 1.5-2.5 of control
conversion to ceramide [2]: rapidly converted to ceramide
effect on kinase activity (in words) [3]: similarly as effective as C8-cer
EGFR phosphorylation on Thr-669 [4]: enhanced phosphorylation of the EGFR on Thr-669; also recorded: stimulated phosphorylation of the EGFR on Thr-669; also recorded: induced epidermal growth factor receptor (EGFR) phosphorylation on Thr-669
effect on EGFR peptide phosphorylation (in words) [5]: similarly effective
stimulation of EGFR peptide phosphorylation ([5]; sphingosine (0.001-3 μM), 2 minutes): 1.6 fold of control

Ceramide
effect on kinase activity (in words) [3]: induced a similar effect
maximum enhancement of kinase activity ([6]; ceramide 0.001 to 3 μM): two-fold of the control
phosphorylated residue [7]: exclusively on the threonine residue
EGFR phosphorylation on Thr-669 [4]: induced identical effects; also recorded: induced identical phosphorylation
lowest effective concentration ([5]; 2 minutes): 1 nM
effect on EGFR peptide phosphorylation (in words) [5]: Only membrane activity was enhanced
effect on EGFR peptide phosphorylation (in words) ([5]; listed as natural ceramide (Sigma type III)): similarly effective
increase in kinase activity ([5]; a-431 cells, 0.5 min, 0.5 µM): 2 -fold
maximal effect on EGFR peptide phosphorylation ([5]; a-431 cells, 2 min, 1 µM): 2.1 -fold of control
lowest effective concentration ([5]; abstract): 1 nM
duration of stimulation of kinase activity ([5]; ceramide 0.5 μM): at least 15 minutes
time at which stimulation of EGFR peptide phosphorylation was evident ([5]; ceramide 0.5 μM): ≤ 30 s
concentration for maximal effect ([5]; peptide phosphorylation, 2 minutes): 1 µM
EC50 ([5]; read-out: ED50 for EGFR peptide phosphorylation, 2 minutes): ~30 nM

NH2 -Glu-Leu-Val-Glu-Pro-Leu-Thr-Pro-Ser-Gly-Glu-Ala-Pro-Asn-Gln-Ala-Leu-Leu-Arg-COOH (H-ELVEPLTPSGEAPNQALLR-OH) [EGFR peptide]
maximum reaction velocity ([1]; EL-4, baseline): 12.5 pmol min^-1 mg^-1 of microsomal membrane protein
Michaelis constant (Km) for EGFR peptide ([1]; EL-4 microsomal membrane, baseline): 0.15 mg/mL
maximum velocity (V°max) ([6]; EGFR peptide substrate): 50 to 100 pmol per minute per milligram (pmol min^-1 mg^-1) of protein
Michaelis constant (Km) for peptide ([6]; nuclei-free supernates): 0.25 mg/mL
phosphorylated residue [7]: only threonine-669 served as substrate
Apparent Km for EGFR peptide ([5]; A-431, 5 minutes): 0.25 mg/mL
Apparent Vmax ([5]; A-431, EGFR peptide substrate): 100-200 pmol.min^-` /mg of protein^-1

B1: γ interferon: factor that induces monocytic differentiation of HL-60 cells (protein, UniProt P01579 24-161, looked up)
Interferon gamma: QDPYVKEAENLKKYFNAGHSDVADNGTLFLGILKNWKEESDRKIMQSQIVSFYFKLFKNFKDDQSIQKSVETIKEDMNVKFFNSNKKKRDDFEKLTNYSVTDLNVQRKAIHELIQVMAELSPAAKTGKRKRSQMLFRG
sphingomyelin degradation to ceramide / ceramide level (in words) (HL-60 cells [8]): stimulate sphingomyelin degradation to ceramide
monocytic differentiation (HL-60 cells [9]): induce monocytic differentiation
